One series deals with Vero CCL-81 cells. The note with it: 5µM Concentration (Fig 4B right panel).
In a further series the test system is lymphocytes. Briefly: Phase I clinical study: lymphocyte counts in blood. The format is in vivo, human. To be noted: Fig 4A. How it is done: (§1) An open label Phase I clinical study was conducted to assess pharmacodynamics of sodium copper Chlorophyllin in healthy adult, human male subjects under fasting conditions. The study was approved by Drug Controller General of India (DCGI). The trial is registered with the Clinical Trial Registry of India (CTRI/2018/09/015576). Five healthy male subjects were allowed to fast overnight and one Chlorophyllin tablet (750 mg) was administered to each subject by oral route along with ∼200 ml water. The subjects were given breakfast, lunch and snacks and a second tablet of Chlorophyllin (750 mg) was administered to each subject by oral route along with 200 ml water after 12 hr.
(§2) Chlorophyllin tablets comprising Chlorophyllin or salts thereof (750 mg), were administered to healthy human subjects after overnight fasting. Blood samples were collected through an indwelling intravenous cannula (Venflon) placed in the fore arm vein of the subjects at different time intervals. Absolute neutrophil count (ANC) and white blood cell (WBC) counts were measured. Serum was separated and chemokine concentration in the serum was measured using cytometric bead array.

For series [1], the system named is CD34+ hematopoietic stem and progenitor cells. Briefly: Phase I clinical study: CD34+ hematopoietic stem and progenitor cells in blood by flow cytometry. The format is in vivo, human. The note with it: 750 mg tablets, fasting (Fig 2). As for the experimental part:
as §1
Blood sample at each time point was also collected in K2EDTA vacutainer tube and erythrocytes were lysed using RBC lysis buffer. Then cells were stained with fixable far red live dead reagent and PE-CD34 and FITC-CD45 antibodies at 4°C and fixed with 4% formaldehyde. The frequency of CD34+ hematopoietic stem and progenitor cells in the blood was determined by flow cytometry and FlowJo software.

In another series the test system is mice. Briefly: Acute oral toxicity (oral gavage), mice. The class given is in vivo. How it is done: (§3) Different doses of Chlorophyllin (100 to 5000 mg/kg body weight) were given to mice and rats (6 males, 6 females) by oral gavage in an accredited facility for animal toxicity testing. […] There were no signs of toxicity in rodents treated with indicated doses of Chlorophyllin.

For a further series, the system named is neutrophils. Briefly: Phase I clinical study: absolute neutrophil count (ANC) in blood. The class given is in vivo, human. How it is done:
as §1, §2

For series [2], the system named is rats. Briefly: Acute oral toxicity (oral gavage), rats. The format is in vivo. As for the experimental part: as §3
Series [3] relates to rats. Briefly: 28 day repeat dose toxicity study. The note with it: daily dose of 1000 mg per kg body weight for 28 consecutive days. The format is in vivo. As for the experimental part: as §3
Another series deals with MIP-1α. Briefly: Phase I clinical study: serum chemokine by cytometric bead array, MIP-1α. The format is in vivo, human. To be noted: 72hr after first dose. How it is done: as §1, §2
The test system of the next series is white blood cell. Briefly: Phase I clinical study: white blood cell (WBC) count in blood. The format is in vivo, human. The note with it: 8-16hr after first dose (750 mg), fasting. As for the experimental part:
as §1, §2

A further series deals with MIP-1β. Briefly: Phase I clinical study: serum chemokine by cytometric bead array, MIP-1β. The format is in vivo, human. To be noted: 24hr after first dose. How it is done: as §1, §2
The next series has as its system healthy human subjects. Briefly: Phase I clinical study: tolerability in healthy human subjects. The note with it: 750 mg given twice a day, all five human subjects. The class given is in vivo. How it is done:
as §1

For the next series, the system named is SARS-CoV-2 virus. The format is cell-based.
The next series concerns MCP-1. Briefly: Phase I clinical study: serum chemokine by cytometric bead array, MCP-1. The class given is in vivo, human. The note with it: 24hr after first dose. How it is done: as §1, §2

This note sets out measurements from patent publication EP4059493A1, “A CHLOROPHYLLIN CONTAINING PHARMACEUTICAL COMPOSITION FOR PREVENTION OF PATHOGENESIS OF CORONAVIRUS DISEASE” (priority 2021, dated 2022).

Like-named read-outs stand apart in the source and are kept apart here. A value given as a limit tells only on which side of the number the result lay.

On to Sodium copper Chlorophyllin, for which the “cytotoxicity in the target cells” value in the series on Vero CCL-81 cells is recorded as “without causing cytotoxicity”. In addition, in the series with lymphocytes, the “increase in the lymphocyte counts in human blood as compared to pre-dose value” is on record as “up to 30%”. Further, the “relative decrease in percentage of CD34+ HPSCs in human blood as compared to pre-dose value” in [1] is on record as 50-85%. Further, the “tolerability of acute oral dose” value with mice (mice, up to 5000 mg/kg body weight, oral gavage) is “well tolerated”; in the series with rats [2] (rats, up to 5000 mg/kg body weight, oral gavage) it was “well tolerated”. For the same substance, the LD50 dose result in the series on mice (rodents (mice), proposed from absence of toxicity, morbidity or mortality) is listed as “higher than 5000 mg/kg body weight”; in the series on rats [2] (rodents (rats), proposed from absence of toxicity, morbidity or mortality) it was “higher than 5000 mg/kg body weight”. In addition, the “time after first dose at which ANC increase was observed” value with neutrophils (750 mg, 4hr before second dose) is not above 8 h. Moreover, the “increase in ANC relative to pre-dose value” in the series on neutrophils (8-16 hr after first dose (750 mg), fasting, five subjects) is recorded as 12.4-32.5%. The “tolerability in repeat dose toxicity study” value with rats [3] is “well tolerated”. Besides, in the series with MIP-1α, the “relative decrease in MIP-1α in human blood as compared to pre-dose value” is on record as 12-21%. In addition, in the series on white blood cell, the “increase in WBC count relative to pre-dose value” is given as 12.8-26.5%. Further, the “relative decrease in MIP-1β in human blood as compared to pre-dose value” with MIP-1β is on record as 11-55%. Moreover, in the series with healthy human subjects, the “tolerability in human subjects” value is “well tolerated”. Besides, the “effect on SARS-CoV-2 virus multiplication” value in the series on SARS-CoV-2 virus (0.1 micro molar concentration (Fig 4 right panel)) is recorded as “did not inhibit”. The “inhibition of SARS-CoV-2 multiplication” value in the series with SARS-CoV-2 virus (5 micro-molar concentration, 72 hr (three days), Vero CCL-81 cells) is reported as approximately 87%. In addition, the EC50 with SARS-CoV-2 virus (72 hr treatment, read-out: concentration of CHL required to inhibit the growth of SARS-CoV-2 virus by 50% (EC50)) was less than 1 µM; in the series on SARS-CoV-2 virus (Vero CCL-81 cells, 72 hr, read-out: concentration of Chlorophyllin required for inhibition of 50% viral multiplication(EC50)), less than 1 µM. Besides, in the series on SARS-CoV-2 virus (Fig 4), the “concentration of chlorophyllin required for ∼90% inhibition of multiplication of SARS-CoV-2 virus” value is given as “about 5 micro molar”. In addition, in the series on SARS-CoV-2 virus (less than 1 micro-molar concentration), the “effect on multiplication of SARS-CoV-2 virus” value is “did not significantly decrease”. Also, the “relative decrease in MCP-1 in human blood as compared to pre-dose value” with MCP-1 is reported as 13-37%.
